Experimental data from US20260250318A1, “COMPOSITIONS AND METHODS FOR CROSSING THE BLOOD BRAIN BARRIER” (VOYAGER THERAPEUTICS, INC., priority 2022, published 2026).

Experiments:
Conditions in all cases: synthetic library passage 3, intravenous, relative to wild-type AAV9
[1] = tested on: brain, spinal cord, and DRG of the NHPs; assay: NGS fold enrichment of synthetic library (passage 3) in NHPs, first cross-species screen; type: in vivo, cynomolgus macaques (Macaca fascicularis)
In short: (§1)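 Synthetic capsid library (passage 3) was given intravenously […] to NHPs aged 2-4 years and to BALB/c and C57Bl/6 mice (n=3 each, 6-8 weeks). After about 28 days in vivo, tissue RNA was RT-PCR amplified and NGS-sequenced; values are fold enrichment per variant relative to wild-type AAV9.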

[2] = tested on: brain; assay: NGS fold enrichment of synthetic library (passage 3) in BALB/c mice, first cross-species screen; type: in vivo
In short: as §1

[3] = tested on: brain; assay: NGS fold enrichment of synthetic library (passage 3) in C57Bl/6 mice, first cross-species screen; type: in vivo
In short: as §1

[4] = RNA from spinal cord of NHPs, NGS
[5] = RNA from brain of BALB/c mice, NGS
[6] = RNA from brain of C57Bl/6 mice, NGS

Row | Sequence | Fold enrichment over AAV9 in the brain of NHPs ([1]; RNA NGS, brain of NHPs) [fold] | Fold enrichment over AAV9 in the spinal cord of NHPs ([1]; RNA NGS, spinal cord of NHPs) [fold] | Fold enrichment over AAV9 in the brain of Mice (BALB/c) ([2]; RNA NGS, brain of BALB/c mice) [fold] | Fold enrichment over AAV9 in the brain of Mice (C57Bl/6) ([3]; RNA NGS, brain of C57Bl/6 mice) [fold] | Fold enrichment over AAV9 in the brain of NHPs ([1]; RNA from brain of NHPs, NGS) [fold] | Fold enrichment over AAV9 in the spinal cord of NHPs [1, 4] [fold] | Fold enrichment over AAV9 in the brain of Mice (BALB/c) [2, 5] [fold] | Fold enrichment over AAV9 in the brain of Mice (C57Bl/6) [3, 6] [fold]
1 | GSGSPHVKIQNQQT | 16.854 | 9.068 | 2.227 | 2.173 |  |  |  | 
2 | GSGHAKAVGQNQQT | 1.081 | 4.357 | 0.824 | 0.703 |  |  |  | 
3 | GSGQNQQLPHSNLT | 1.521 | 1.838 | 0.283 | 0.442 |  |  |  | 
4 | GSGQVHASQVNQKT | 1.049 | 0.503 | 0.767 | 0.855 |  |  |  | 
5 | GSGFGPQTGQNQQT | 2.964 | 2.861 | 0.849 | 1.280 |  |  |  | 
6 | GSGQNIGHSLPQQT |  |  |  |  | 1.264 | 6.183 | 0.478 | 0.740
7 | GSLSHMESGQNQQT | 1.120 | 0.829 | 0.265 | 0.489 |  |  |  | 
8 | GKPAGGLSGQNQQT | 1.085 | 2.805 | 0.739 | 0.708 |  |  |  | 
9 | GSGQSYDMRGNQQT |  |  |  |  | 1.248 | 0.567 | 0.368 | 0.588
10 | GLNHFGASGQNQQT | 3.802 | 3.188 | 0.579 | 0.774 |  |  |  | 
11 | GSGQNQQTGNPKHT | 1.504 | 5.973 | 1.139 | 1.391 |  |  |  | 
12 | GSGQMASRESNQQT | 2.492 | 0.300 | 0.288 | 0.341 |  |  |  | 
13 | GSLIGMQSGQNQQT | 1.656 | 6.783 | 0.392 | 0.797 |  |  |  | 
14 | GSGQNQQTVPSNLV |  |  |  |  | 1.201 | 0.791 | 0.281 | 0.434
15 | GRLSNAHGGQNQQT |  |  |  |  | 1.245 | 0.839 | 0.725 | 1.036
16 | GSRMTQQFGQNQQT | 1.720 | 25.798 | 0.976 | 1.233 |  |  |  | 

Row | Sequence | Fold enrichment over AAV9 in the brain of NHPs ([1]; RNA NGS, brain of NHPs) [fold] | Fold enrichment over AAV9 in the spinal cord of NHPs ([1]; RNA NGS, spinal cord of NHPs) [fold] | Fold enrichment over AAV9 in the brain of Mice (BALB/c) ([2]; RNA NGS, brain of BALB/c mice) [fold] | Fold enrichment over AAV9 in the brain of Mice (C57Bl/6) ([3]; RNA NGS, brain of C57Bl/6 mice) [fold] | Fold enrichment over AAV9 in the brain of NHPs ([1]; RNA from brain of NHPs, NGS) [fold] | Fold enrichment over AAV9 in the spinal cord of NHPs [1, 4] [fold] | Fold enrichment over AAV9 in the brain of Mice (BALB/c) [2, 5] [fold] | Fold enrichment over AAV9 in the brain of Mice (C57Bl/6) [3, 6] [fold]
17 | GSSVNSMIGQNQQT |  |  |  |  | 1.239 | 0.000 | 0.580 | 0.976
18 | GSGQNQHLSSFVQT | 1.013 | 0.110 | 0.364 | 1.090 |  |  |  | 
19 | GSGQQLSITPNQQT | 1.979 | 10.280 | 0.201 | 0.845 |  |  |  | 
20 | GSGQNQQTVQSNLV | 1.103 | 2.350 | 0.698 | 0.577 |  |  |  | 
21 | GSGRLVPNGPNQQT | 2.314 | 3.925 | 0.411 | 0.639 |  |  |  | 
22 | GSGAMPSHGQNQQT | 1.915 | 0.000 | 0.912 | 1.142 |  |  |  | 
23 | GSGQEHRSLANQQT | 1.046 | 0.000 | 0.344 | 0.507 |  |  |  | 
24 | GSGQNQDHQNKQQT |  |  |  |  | 1.308 | 1.470 | 0.761 | 0.510
25 | GSGQHSPHALNQQT | 1.064 | 1.412 | 0.573 | 0.885 |  |  |  | 
26 | GSGISSRNMQNQQT |  |  |  |  | 1.291 | 6.328 | 0.560 | 1.671
27 | GDSSLRHSGQNQQT | 2.194 | 0.000 | 0.412 | 0.662 |  |  |  | 
28 | GSGHGQVLSQNQQT | 2.213 | 12.133 | 0.661 | 1.880 |  |  |  | 
29 | GSAGISPSGQNQQT | 1.797 | 1.812 | 0.622 | 0.784 |  |  |  | 
30 | GSGQNQQTLRGSLE |  |  |  |  | 1.179 | 1.812 | 0.354 | 0.853
31 | GSGQPVLSISNQQT | 1.586 | 2.695 | 0.282 | 0.390 |  |  |  | 
32 | GNSQVKVSGQNQQT |  |  |  |  | 1.158 | 4.930 | 0.728 | 1.422
